Results published in PubChem BioAssay (NCI).
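Exposure lasted 48 hours, with cells grown in 96-well plates and compounds tested at five concentrations. Abbreviation: GI50, concentration required for 50% inhibition of growth. At the TGI there is no net growth.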

Tests used:
Assay in all cases: growth of human tumour cells (NCI), 48 h
786-0 renal = test system: 786-0 renal
A498 renal = test system: A498 renal
A549 NSCLC = test system: A549 NSCLC
ACHN renal = test system: ACHN renal
BT-549 breast = test system: BT-549 breast
CAKI-1 renal = test system: CAKI-1 renal
CCRF-CEM leukemia = test system: CCRF-CEM leukemia
COLO 205 colon = test system: COLO 205 colon
DU-145 prostate = test system: DU-145 prostate
HCC-2998 colon = test system: HCC-2998 colon
HCT-116 colon = test system: HCT-116 colon
HCT-15 colon = test system: HCT-15 colon
HL-60(TB) leukemia = test system: HL-60(TB) leukemia
HOP-62 NSCLC = test system: HOP-62 NSCLC
HOP-92 NSCLC = test system: HOP-92 NSCLC
HS 578T breast = test system: HS 578T breast
HT29 colon = test system: HT29 colon
IGROV1 ovarian = test system: IGROV1 ovarian
K-562 leukemia = test system: K-562 leukemia
KM12 colon = test system: KM12 colon
LOX IMVI melanoma = test system: LOX IMVI melanoma
M14 melanoma = test system: M14 melanoma
MALME-3M melanoma = test system: MALME-3M melanoma
MCF7 breast = test system: MCF7 breast
MDA-MB-231 breast = test system: MDA-MB-231 breast
MDA-MB-435 = test system: MDA-MB-435
MOLT-4 leukemia = test system: MOLT-4 leukemia
NCI-H226 lung = test system: NCI-H226 lung
NCI-H23 lung = test system: NCI-H23 lung
NCI-H460 lung = test system: NCI-H460 lung
NCI-H522 lung = test system: NCI-H522 lung
NCI/ADR-RES ovarian = test system: NCI/ADR-RES ovarian
OVCAR-3 ovarian = test system: OVCAR-3 ovarian
OVCAR-4 ovarian = test system: OVCAR-4 ovarian
OVCAR-5 ovarian = test system: OVCAR-5 ovarian
OVCAR-8 ovarian = test system: OVCAR-8 ovarian
RPMI-8226 leukemia = test system: RPMI-8226 leukemia
RXF 393 renal = test system: RXF 393 renal
SF-268 CNS = test system: SF-268 CNS
SF-295 CNS = test system: SF-295 CNS
SF-539 CNS = test system: SF-539 CNS
SK-MEL-28 melanoma = test system: SK-MEL-28 melanoma
SK-MEL-5 melanoma = test system: SK-MEL-5 melanoma
SK-OV-3 ovarian = test system: SK-OV-3 ovarian
SN12C renal = test system: SN12C renal
SNB-19 CNS = test system: SNB-19 CNS
SNB-75 CNS = test system: SNB-75 CNS
SR leukemia = test system: SR leukemia
SW-620 colon = test system: SW-620 colon
T-47D breast = test system: T-47D breast
TK-10 renal = test system: TK-10 renal
U251 CNS = test system: U251 CNS
UACC-257 melanoma = test system: UACC-257 melanoma
UACC-62 melanoma = test system: UACC-62 melanoma
UO-31 renal = test system: UO-31 renal

COc1cc(/C=C/C(=O)Nc2ccc3c(c2)/C(=C\c2cccn2C)C(=O)N3)cc(OC)c1OC
GI50 (786-0 renal): 8.69 µM
TGI (786-0 renal): 98.9 µM
GI50 (A498 renal): 2.65 µM
TGI (A498 renal): 17.6 µM
GI50 (A549 NSCLC): 4.94 µM
TGI (A549 NSCLC): > 100 µM
GI50 (ACHN renal): 6.05 µM
TGI (ACHN renal): 53.9 µM
GI50 (BT-549 breast): 6.33 µM
TGI (BT-549 breast): 24.9 µM
GI50 (CAKI-1 renal): 4.95 µM
TGI (CAKI-1 renal): > 100 µM
GI50 (CCRF-CEM leukemia): 2.47 µM
TGI (CCRF-CEM leukemia): 33.5 µM
GI50 (COLO 205 colon): 3.51 µM
TGI (COLO 205 colon): 14.2 µM
GI50 (DU-145 prostate): 7.9 µM
TGI (DU-145 prostate): > 100 µM
GI50 (HCC-2998 colon): 5.34 µM
TGI (HCC-2998 colon): 20.9 µM
GI50 (HCT-116 colon): 4.68 µM
TGI (HCT-116 colon): 29.2 µM
GI50 (HCT-15 colon): 3.83 µM
TGI (HCT-15 colon): > 100 µM
GI50 (HL-60(TB) leukemia): 2.48 µM
TGI (HL-60(TB) leukemia): 6.45 µM
GI50 (HOP-62 NSCLC): 3.71 µM
TGI (HOP-62 NSCLC): 32 µM
GI50 (HOP-92 NSCLC): 1.54 µM
TGI (HOP-92 NSCLC): 8.46 µM
GI50 (HS 578T breast): 3.34 µM
TGI (HS 578T breast): > 100 µM
GI50 (HT29 colon): 3.45 µM
TGI (HT29 colon): 16.7 µM
GI50 (IGROV1 ovarian): 9.12 µM
TGI (IGROV1 ovarian): 70.9 µM
GI50 (K-562 leukemia): 3.06 µM
TGI (K-562 leukemia): > 100 µM
GI50 (KM12 colon): 3.2 µM
TGI (KM12 colon): 12.9 µM
GI50 (LOX IMVI melanoma): 4.21 µM
TGI (LOX IMVI melanoma): 20.5 µM
GI50 (M14 melanoma): 6.7 µM
TGI (M14 melanoma): 45.7 µM
GI50 (MALME-3M melanoma): 7.34 µM
TGI (MALME-3M melanoma): 27 µM
GI50 (MCF7 breast): 1.15 µM
TGI (MCF7 breast): 6.7 µM
GI50 (MDA-MB-231 breast): 2.3 µM
TGI (MDA-MB-231 breast): 17.8 µM
GI50 (MDA-MB-435): 6.41 µM
TGI (MDA-MB-435): 31.4 µM
GI50 (MOLT-4 leukemia): 4 µM
TGI (MOLT-4 leukemia): 82.4 µM
GI50 (NCI-H226 lung): 8.14 µM
TGI (NCI-H226 lung): 32 µM
GI50 (NCI-H23 lung): 5.01 µM
TGI (NCI-H23 lung): 27.2 µM
GI50 (NCI-H460 lung): 4.52 µM
TGI (NCI-H460 lung): 76.8 µM
GI50 (NCI-H522 lung): 2.41 µM
TGI (NCI-H522 lung): 11.7 µM
GI50 (NCI/ADR-RES ovarian): 67.7 µM
TGI (NCI/ADR-RES ovarian): > 100 µM
GI50 (OVCAR-3 ovarian): 5.5 µM
TGI (OVCAR-3 ovarian): 22.3 µM
GI50 (OVCAR-4 ovarian): 4.43 µM
TGI (OVCAR-4 ovarian): > 100 µM
GI50 (OVCAR-5 ovarian): 16.6 µM
TGI (OVCAR-5 ovarian): 35.2 µM
GI50 (OVCAR-8 ovarian): 3.75 µM
TGI (OVCAR-8 ovarian): > 100 µM
GI50 (RPMI-8226 leukemia): 1.69 µM
TGI (RPMI-8226 leukemia): 4.04 µM
GI50 (RXF 393 renal): 4.99 µM
TGI (RXF 393 renal): 19.7 µM
GI50 (SF-268 CNS): 8.19 µM
TGI (SF-268 CNS): 35.9 µM
GI50 (SF-295 CNS): 5.15 µM
TGI (SF-295 CNS): 22 µM
GI50 (SF-539 CNS): 5.15 µM
TGI (SF-539 CNS): 19.8 µM
GI50 (SK-MEL-28 melanoma): 4.03 µM
TGI (SK-MEL-28 melanoma): 17.7 µM
GI50 (SK-MEL-5 melanoma): 1.92 µM
TGI (SK-MEL-5 melanoma): 6.68 µM
GI50 (SK-OV-3 ovarian): 8.35 µM
TGI (SK-OV-3 ovarian): 58.8 µM
GI50 (SN12C renal): 3.17 µM
TGI (SN12C renal): 59.8 µM
GI50 (SNB-19 CNS): 3.89 µM
TGI (SNB-19 CNS): > 100 µM
GI50 (SNB-75 CNS): 2.15 µM
TGI (SNB-75 CNS): 18.5 µM
GI50 (SR leukemia): 1.91 µM
TGI (SR leukemia): 48.9 µM
GI50 (SW-620 colon): 11.4 µM
TGI (SW-620 colon): 46.5 µM
GI50 (T-47D breast): 1.59 µM
TGI (T-47D breast): 13.9 µM
GI50 (TK-10 renal): 3.68 µM
TGI (TK-10 renal): 18.1 µM
GI50 (U251 CNS): 3.41 µM
TGI (U251 CNS): 20 µM
GI50 (UACC-257 melanoma): 10.1 µM
TGI (UACC-257 melanoma): 31.2 µM
GI50 (UACC-62 melanoma): 3.45 µM
TGI (UACC-62 melanoma): 33.7 µM
GI50 (UO-31 renal): 3.47 µM
TGI (UO-31 renal): 33.3 µM
